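96-well plates; 48 h exposure; 5 concentrations. Endpoints by linear interpolation between flanking doses. Not reached: highest tested concentration assigned. GI50 = concentration required for 50% inhibition of growth. TGI denotes the concentration required for complete inhibition of growth.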 Where only a bound is given, the exact number is not on record here.

Among the test systems are BT-549 breast; EKVX NSCLC; LOX IMVI melanoma; NCI-H460 lung; SF-268 CNS; SK-MEL-5 melanoma; SN12C renal; TK-10 renal.
What all share (assay): NCI tumour cell line growth inhibition, 48 h

As to `Cc1ccc2c(c1)S(=O)(=O)c1ccc3ccccc3c1N2`, the TGI with BT-549 breast, in the experiment on EKVX NSCLC, in the experiment with LOX IMVI melanoma, in the experiment on NCI-H460 lung, with SF-268 CNS and in the experiment on SK-MEL-5 melanoma was above 100 µM each time. Besides, the TGI in the experiment with SN12C renal and in the experiment with TK-10 renal was above 100 µM in each case.
As for `CC1OC(OC2C(OC3CCC4(C)C(CCC5(C)C4CC=C4C6CC(C)(C)CCC6(C(=O)O)CCC45C)C3(C)CO)OCC(O)C2O)C(O)C(O)C1O` (stereo not drawn), the TGI in the experiment on BT-549 breast came out at 35 µM; in the experiment on EKVX NSCLC, 40 µM; in the experiment on LOX IMVI melanoma it was 53.5 µM; in the experiment on NCI-H460 lung it was 43 µM; with SF-268 CNS, 37.6 µM; in the experiment with SK-MEL-5 melanoma it was 36.3 µM. Also, the TGI with SN12C renal came out at 42 µM; with TK-10 renal, 40.8 µM.
Take `NCC1OC(OC2C(CO)OC(OC3C(O)C(N)CC(N)C3OC3OC(CO)C(O)CC3N)C2O)C(N)C(O)C1OC1OC(CO)C(O)C(O)C1O` (stereo not drawn): the GI50 with BT-549 breast, with EKVX NSCLC, in the experiment with LOX IMVI melanoma, in the experiment with NCI-H460 lung, in the experiment on SF-268 CNS and with SK-MEL-5 melanoma was above 50 µg/mL in each case. In addition, the GI50 with SN12C renal and with TK-10 renal was above 50 µg/mL each time. Moreover, the TGI with BT-549 breast, in the experiment on EKVX NSCLC, in the experiment on LOX IMVI melanoma, in the experiment on NCI-H460 lung, in the experiment with SF-268 CNS and in the experiment on SK-MEL-5 melanoma was above 50 µg/mL in each case. The TGI in the experiment with SN12C renal and in the experiment on TK-10 renal was above 50 µg/mL each time.
On to `CCN(CC)C1CCC(Nc2c(C(C)=O)cnc3ccc(-c4ccc(O)c(Cl)c4)cc23)CC1` (stereo not drawn), for which the GI50 in the experiment on BT-549 breast is 1.91 µM; in the experiment on EKVX NSCLC, 1.82 µM; in the experiment with LOX IMVI melanoma, 0.336 µM; in the experiment with NCI-H460 lung it was 0.311 µM; in the experiment on SF-268 CNS, 0.487 µM; in the experiment on SK-MEL-5 melanoma, 0.782 µM. Also, the GI50 with SN12C renal is 0.45 µM; in the experiment on TK-10 renal it was 3.52 µM. In addition, the TGI is 5.89 µM in the experiment with BT-549 breast; above 47.2 µM in the experiment on EKVX NSCLC; 1.58 µM in the experiment with LOX IMVI melanoma; 1.87 µM with NCI-H460 lung; 12.2 µM with SF-268 CNS; 4.55 µM in the experiment on SK-MEL-5 melanoma. In addition, the TGI with SN12C renal was above 60 µM; with TK-10 renal, above 100 µM.
Take `O=C(Nc1n[nH]c2nnc(-c3cccnc3)cc12)C1CC1`: the GI50 in the experiment on BT-549 breast was 10.8 µM; in the experiment with EKVX NSCLC, above 20.9 µM; with LOX IMVI melanoma, 6.99 µM; in the experiment on NCI-H460 lung it was 8.13 µM; with SF-268 CNS, above 11.8 µM; with SK-MEL-5 melanoma it was 4.61 µM. The GI50 in the experiment on SN12C renal was above 11.7 µM. Moreover, the TGI in the experiment with BT-549 breast, with EKVX NSCLC, with LOX IMVI melanoma, with NCI-H460 lung, in the experiment on SF-268 CNS and with SK-MEL-5 melanoma was above 25 µM in each case. Besides, the TGI with SN12C renal and with TK-10 renal was above 25 µM throughout.
On to `CCCCCCCCCCCCCCCCC(=O)O.CCCCCCCCCCCCCCCCCC(=O)O.CCCCCCCCCCCCCCCCCC(=O)O.CCCCCCCCCCCCCCCCCC(=O)O.CCCCCCCCCCCCCCCCCC(=O)O.CO[CH-]OC12COC1CC(O)C1(C)C(O)C(OC(C)O)C3=C(C)C(OC(=O)C(O)C([NH-])c4ccccc4)CC(O)(C(OC(=O)c4ccccc4)C21)C3(C)C.[Cu+].[Zn].[Zn].[Zn].[Zn].[Zn]` (stereo not drawn), for which the GI50 was 0.00947 µM in the experiment with BT-549 breast; 0.112 µM in the experiment on EKVX NSCLC; 0.00381 µM in the experiment on LOX IMVI melanoma; 0.00441 µM with NCI-H460 lung; 0.0116 µM with SN12C renal; 0.258 µM with TK-10 renal. Moreover, the TGI in the experiment on BT-549 breast is 3.95 µM; in the experiment on EKVX NSCLC, 9.22 µM; in the experiment with LOX IMVI melanoma, 7.05 µM; in the experiment with NCI-H460 lung, 3.66 µM; with SF-268 CNS it was 6.25 µM; with SK-MEL-5 melanoma, 3.57 µM. Moreover, the TGI in the experiment on SN12C renal and in the experiment with TK-10 renal was above 25 µM in each case.
`Oc1cc2ccccc2c(-c2c(O)c(O)cc3ccccc23)c1O`: the GI50 in the experiment with BT-549 breast was 4.17 µM; with EKVX NSCLC it was 1.87 µM; in the experiment with LOX IMVI melanoma it was 0.939 µM; with NCI-H460 lung, 0.145 µM; with SF-268 CNS, 1.88 µM; in the experiment on SK-MEL-5 melanoma, 1.1 µM. The GI50 was 1.99 µM in the experiment with SN12C renal and 1.38 µM in the experiment on TK-10 renal. Also, the TGI with BT-549 breast is 27.8 µM; in the experiment with EKVX NSCLC, above 44.4 µM; with LOX IMVI melanoma, 8.57 µM; in the experiment on NCI-H460 lung, 2.78 µM; in the experiment on SF-268 CNS, 23.3 µM; in the experiment with SK-MEL-5 melanoma it was 4.49 µM. Further, the TGI was 15.8 µM with SN12C renal and 30.9 µM in the experiment on TK-10 renal.
`N#C[Se]CCCNS(=O)(=O)C1CC2C=CC1C2` (stereo not drawn): the GI50 with BT-549 breast is 0.192 µM; with EKVX NSCLC it was 0.491 µM; in the experiment on LOX IMVI melanoma, 0.186 µM; in the experiment on NCI-H460 lung, 0.316 µM; in the experiment with SF-268 CNS, 0.301 µM; with SK-MEL-5 melanoma it was 1.41 µM. Further, the GI50 is 0.494 µM in the experiment on SN12C renal and 0.403 µM in the experiment with TK-10 renal. The TGI with BT-549 breast is 0.388 µM; in the experiment with EKVX NSCLC it was 1.84 µM; in the experiment with LOX IMVI melanoma it was 0.376 µM; in the experiment with NCI-H460 lung, 1.27 µM; in the experiment with SF-268 CNS, 0.916 µM; in the experiment with SK-MEL-5 melanoma, 2.95 µM. Besides, the values for the TGI in the experiment with SN12C renal and in the experiment on TK-10 renal were 1.44 µM and 2.33 µM, respectively.
Regarding `O=C1c2ccccc2-c2c1c1ccccc1c(=O)n2CCCNCCCCNCCCN1C(=O)c2ccccc2C2C(=O)c3ccccc3C21` (stereo not drawn), the GI50 with BT-549 breast was 0.854 µM; in the experiment on EKVX NSCLC, 0.358 µM; with LOX IMVI melanoma, 0.0278 µM; in the experiment on NCI-H460 lung, 0.0426 µM; in the experiment with SF-268 CNS, 0.238 µM; in the experiment with SK-MEL-5 melanoma, 0.939 µM. Also, the GI50 with SN12C renal is below 0.005 µM; with TK-10 renal, 0.614 µM. The TGI in the experiment on BT-549 breast stood at 2.04 µM; in the experiment with EKVX NSCLC, 1.05 µM; with LOX IMVI melanoma, 0.253 µM; with NCI-H460 lung, 2.39 µM; with SF-268 CNS it was 1.42 µM; in the experiment on SK-MEL-5 melanoma, 3.93 µM. Further, the TGI in the experiment on SN12C renal stood at 0.818 µM; with TK-10 renal, 1.45 µM.
As for `O=C(O)c1ccc(C(=O)O)c(C(=O)Nc2ccc3c(c2)C(=O)c2ccccc2-3)c1`, the TGI in the experiment on BT-549 breast, with EKVX NSCLC, with LOX IMVI melanoma, with NCI-H460 lung, in the experiment with SF-268 CNS and in the experiment on SK-MEL-5 melanoma was above 100 µM each time. The TGI in the experiment on SN12C renal and in the experiment on TK-10 renal was above 100 µM throughout.

These data come from PubChem BioAssay (NCI).
